Experimental data: PMC5729604, “Dual inhibitors of hepatitis C virus and hepatocellular carcinoma: design, synthesis and docking studies” (Future Science OA, 2017)
Entries after “also recorded” stand apart in the source; their conditions may differ.

Experiments:
In vitro hemolytic assay = type: cell-based; details: 2% erythrocyte suspension (washed red blood cells); 2% erythrocyte suspension, 3 μl of 1 mg/ml compound in DMF per 240 μl well, 37°C 30 min, absorbance 405 nm; <5% considered nontoxic
Experimental: Compounds 5a-x and 6a-h were subjected to the in vitro hemolytic assay to identify those which cause hemolysis to red blood cells (RBCs). Consequently, these compounds would be toxic in vivo so they were excluded from further biological screening.
Blood samples (5 ml) were freshly collected into heparinized tubes and were centrifuged (1000 r.p.m. for 20 min) at room temperature. The plasma and buffy coat were removed by Pasteur pipette, and the collected erythrocytes were washed three-times using isotonic buffer solution (0.9% sodium chloride [Sigma-Aldrich, MO, USA]) by centrifugation (2500 r.p.m. for 10 min). A two percent erythrocyte suspension was prepared to be used in the assay.
A 1 mg/ml stock solution of each compound was prepared in DMF (Sigma-Aldrich). Compound wells were prepared by adding 3 μl of the compound solution to 117 μl isotonic buffer solution and 120 μl erythrocyte suspension. Compounds color blank wells were prepared by adding 3 μl compound to 237 μl isotonic buffer solution. Solvent (DMF) wells were prepared by adding 3 μl DMF to 117 μl isotonic buffer solution and 120 μl erythrocyte suspension. Positive control wells (representing 100% hemolysis) were prepared by adding 120 μl erythrocyte suspension to 120 μl distilled water, while negative control wells (representing 0% hemolysis) were prepared by adding 120 μl erythrocyte suspension to 120 μl isotonic buffer solution. Finally, blank wells contained only 240 μl isotonic buffer solution. Each set of samples was pipetted in triplicate. The microtiter plate was then shaken well on bench, incubated at 37°C for 30 min then centrifuged (2000 rpm for 5 min) at room temperature.
A fraction of the supernatant layer (150 μl) of each well was transferred to another 96-well microtiter plate. Erythrocyte hemolysis was determined by reading the absorbance (A) of liberated hemoglobin at 405 nm in the supernatant fraction compared with the 100% hemolysis of erythrocyte. The average value was calculated from triplicate assay: [drawing 2]

[1] = system: HepG2 cells infected with hepatitis C virus; assay: In vitro anti-HCV screening, qualitative RT-PCR of viral RNA; type: cell-based, HCV genotype-4; details: for Result (anti-HCV screening): at the used dose (below LD0 on HepG2 and PBMCs), 72 h, Positive = disappearance of viral RNA-amplified product (174 bp); for in vitro anti-HCV activity, in words: HCV-infected HepG2 cells, RT-PCR
From the text: The safe compounds on RBCs (5a-g, 5i-l, 5p-r, 5v-w, 6b-g) were screened for their in vitro anti-HCV activity using the HCC HepG2 cell line infected with the HCV. Monitoring of the HCV viremia pre- and post-antiviral therapy through the detection of viral RNA using qualitative reverse transcription-PCR (RT-PCR) was adopted in the present investigation. This technique was reported to be the most frequently used, reliable and sensitive technique. Inhibition of viral replication was detected by amplification of viral RNA segments by the RT-PCR technique both in the cultivated infected cells alone (as a positive control) and at the specified dose for each test compound at optimal temperature. The test compound was considered to be active when it can inhibit the viral replication inside the HCV-infected HepG2 cells, as evidenced by the disappearance of the viral RNA-amplified products detected by the RT-PCR (compared with positive control).
The used concentration of each compound was chosen to be lower than the LD0 on HepG2 cells. Therefore, 100% viability of HepG2 cells was maintained, to make sure that any inhibitory effect was due to anti-HCV activity rather than cytotoxic activity on HepG2 cells. Moreover, the used concentrations were also chosen to be lower than the LD0 on PBMCs. Consequently, these doses could be used for inhibition of HCV in normal cells infected with the virus.
HepG2 cells were washed twice in RPMI-1640 medium supplemented with 200 μM L-glutamine and […] HEPES buffer. The cells were suspended at 12 × 10^4 cells/ml in RPMI culture medium (RPMI supplemented medium and 10% FBS). The appropriate number of cells to be used was chosen to be 12 × 10^3 cells/well (100 μl of the prepared suspension), and the cells were left to adhere on the polystyrene […] plates in an incubator at 37°C, 5% CO2 and 95% humidity for 24 h. The cells were washed once using RPMI supplemented medium, then infected with 2% HCV-infected serum (the used serum was a pole of ten patients infected with HCV genotype-4 with viral loads: 3.2–9 million IU/ml, G4 HCV RNA) in RPMI culture medium containing 8% FBS. The used dose of each compound was chosen so as to maintain 100% viability of the HepG2 cell line (the dose was lower than the LD0 of each compound on HepG2 cells as calculated from the in vitro anticancer screening). It was reported that, cultured HepG2 cells lost their biotransformation activity due to decrease in cytochrome (CYP) transcription. This waived its effect on the compounds stability during the test. Negative control is HepG2 cells with culture medium without addition of HCV infected serum or addition of tested compounds. Positive control is HepG2 cells with culture medium and infected HCV serum but without addition of tested compounds. After addition of the compounds, the plates were incubated at 37°C, 5% CO2 and 95% humidity for 72 h, followed by RNA extraction. The RNA strand was detected by RT-PCR using HCV-specific primers to the […] region of the virus.
RNA was extracted from HepG2 cells using the method described by El-Awady et al.. Culture cells were mixed with 200 μl of 4 mol/l guanidinium isothiocyanate (Fischer Bioreagents) containing 25 mmol/l sodium citrate (MP Biomedicals, CA, USA), 0.5% sarkosyl (Fischer Bioreagents), 0.1 mol/l β-mercaptoethanol (MP Biomedicals), and 100 μl sodium acetate (Merck). The lysed cells were mixed with an equal volume of phenol, chloroform and isoamyl alcohol (25:24:1, pH 4; Fischer Bioreagents). After vortexing, the mixture was centrifuged (14,000 r.p.m. for 10 min) at 4°C. The aqueous layer was collected and mixed with an equal volume of isopropanol (Acros Organics, Geel, Belgium). After incubation at -20°C overnight, RNA was precipitated by centrifugation (14,000 r.p.m. for 30 min) at 4°C, and the precipitated RNA was washed twice with 70% ethanol. […]

SMILES | hemolysis at 30 min, 12.5 µg/ml (In vitro hemolytic assay) [%] | Result (anti-HCV screening) [1] | in vitro anti-HCV activity, in words [1]
CC(=NN=C1SC(=Cc2cn(-c3ccccc3)nc2-c2ccc(Cl)cc2)C(=O)N1C1CCCCC1)c1nc2ccccc2[nH]1 [Compound 5w, 2-[1-(1H-Benzimidazole-2-yl)ethylidenehydrazono]-5-{[3-(4-chlorophenyl)-1-phenyl-1H-pyrazol-4-yl]methylene}-3-cyclohexylthiazolidin-4-one] | 3.53 | Negative | 
COc1ccc(-c2nn(-c3ccccc3)cc2C=C2SC(=NN=C(C)c3cc4ccccc4o3)N(C3CCCCC3)C2=O)cc1 [Compound 5l, 2-[1-(Benzofuran-2-yl)ethylidenehydrazono]-5-{[3-(4-methoxyphenyl)-1-phenyl-1H-pyrazol-4-yl]methylene}-3-cyclohexylthiazolidin-4-one] | 2.89 | Positive | showed in vitro anti-HCV activity; also recorded: exhibited in vitro anti-HCV activity
CC(=NN=C1SC(=Cc2cn(-c3ccccc3)nc2-c2ccccc2)C(=O)N1c1ccc(Cl)cc1)c1cc2ccccc2o1 [Compound 5d, 2-[1-(Benzofuran-2-yl)ethylidenehydrazono]-5-[(1,3-Diphenyl-1H-pyrazol-4-yl)methylene]-3-(4-chlorophenyl)thiazolidin-4-one] | 1.05 | Negative | 
CC(=NN=C1SC(=C2C(=O)Nc3ccccc32)C(=O)N1c1ccc(Cl)cc1)c1cc2ccccc2o1 [Compound 6b, 2-[1-(Benzofuran-2-yl)ethylidenehydrazono]-5-(2-oxoindolin-3-ylidene)-3-(4-chlorophenyl)thiazolidin-4-one] | 3.08 | Negative | 
CC(=NN=C1SC(=Cc2cn(-c3ccccc3)nc2-c2ccccc2)C(=O)N1c1ccc(Cl)cc1)c1nc2ccccc2[nH]1 [Compound 5p, 2-[1-(1H-Benzimidazole-2-yl)ethylidenehydrazono]-5-[(1,3-Diphenyl-1H-pyrazol-4-yl)methylene]-3-(4-chlorophenyl)thiazolidin-4-one] | 4.62 | Positive | showed in vitro anti-HCV activity; also recorded: exhibited in vitro anti-HCV activity
CC(=NN=C1SC(=C2C(=O)Nc3ccccc32)C(=O)N1c1ccc(Cl)cc1)c1nc2ccccc2[nH]1 [Compound 6f, 2-[1-(1H-Benzimidazole-2-yl)ethylidenehydrazono]-5-(2-oxoindolin-3-ylidene)-3-(4-chlorophenyl)thiazolidin-4-one] | 1.01 | Negative | 
CC(=NN=C1SC(=Cc2cn(-c3ccccc3)nc2-c2ccccc2)C(=O)N1C1CCCCC1)c1nc2ccccc2[nH]1 [Compound 5v, 2-[1-(1H-Benzimidazole-2-yl)ethylidenehydrazono]-5-[(1,3-Diphenyl-1H-pyrazol-4-yl)methylene]-3-cyclohexylthiazolidin-4-one] | 3.66 | Positive | showed in vitro anti-HCV activity; also recorded: exhibited in vitro anti-HCV activity
